Drawing on patent publication US7531543B2, “Phenylpiperazine cycloalkanol derivatives and methods of their use” (Wyeth, priority 2003, dated 2009), this text covers inhibition and EC50 for ten molecules.

pEC50: −log10 of the molar value. Where a name gives a salt, the structure may show the parent alone.

The target of one assay is T1, human hNET (Homo sapiens, UniProt P23975).
T1 construct: expressed in transfected cells; host or cells: MDCK-Net6 (MDCK cells stably transfected with hNET)
T1 sequence (P23975 whole entry): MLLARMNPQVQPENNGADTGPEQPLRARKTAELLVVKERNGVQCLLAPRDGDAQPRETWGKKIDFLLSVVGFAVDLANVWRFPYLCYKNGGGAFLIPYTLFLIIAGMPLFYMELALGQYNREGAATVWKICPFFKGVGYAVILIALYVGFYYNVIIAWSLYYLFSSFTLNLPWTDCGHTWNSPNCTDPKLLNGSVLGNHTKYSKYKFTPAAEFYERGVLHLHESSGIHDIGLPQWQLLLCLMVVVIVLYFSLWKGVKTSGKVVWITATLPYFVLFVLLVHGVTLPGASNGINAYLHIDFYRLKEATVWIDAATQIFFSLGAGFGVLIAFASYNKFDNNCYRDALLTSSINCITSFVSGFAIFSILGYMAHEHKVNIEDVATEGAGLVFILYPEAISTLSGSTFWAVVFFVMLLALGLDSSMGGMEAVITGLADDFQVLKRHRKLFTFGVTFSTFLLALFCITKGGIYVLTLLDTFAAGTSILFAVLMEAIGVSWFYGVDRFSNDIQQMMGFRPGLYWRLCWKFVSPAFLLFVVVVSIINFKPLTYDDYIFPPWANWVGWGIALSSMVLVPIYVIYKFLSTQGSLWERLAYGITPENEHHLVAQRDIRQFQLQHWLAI
Description: Norepinephrine (NE) uptake assay in MDCK-Net6 cells. Format: cell-based. As to conditions: 1 μM test compound; [3H]NE uptake, MDCK-Net6 cells stably transfected with hNET. How it is done: MDCK-Net6 cells, stably transfected with human hNET (Pacholczyk, T., R. D. Blakely, and S. G. Amara, Nature, 1991, 350(6316): p. 350-4) were cultured in growth medium containing high glucose DMEM (Gibco, Cat. No. 11995), 10% FBS (dialyzed, heat-inactivated, US Bio-Technologies, Lot FBD1129HI) and 500 µg/ml G418 (Gibco, Cat. No. 10131). Cells were plated at 300,000/T75 flask and cells were split twice weekly. The JAR cell line (human placental choriocarcinoma) was purchased from ATCC (Cat. No. HTB-144). The cells were cultured in growth medium containing RPMI 1640 (Gibco, Cat. No. 72400), 10% FBS (Irvine, Cat. No. 3000), 1% sodium pyruvate (Gibco, Cat. No. 1136) and 0.25% glucose. Cells were plated at 250,000 cells/T75 flask and split twice weekly. For all assays, cells were plated in Wallac 96-well sterile plates (PerkinElmer, Cat. No. 3983498).
Norepinephrine (NE) Uptake Assay
On day 1, cells were plated at 3,000 cells/well in growth medium and maintained in a cell incubator (37° C., 5% CO2). On day 2, growth medium was replaced with 200 μl of assay buffer (25 mM HEPES; 120 mM NaCl; 5 mM KCl; 2.5 mM CaCl2; 1.2 mM MgSO4; 2 mg/ml glucose (pH 7.4, 37° C.)) containing 0.2 mg/ml ascorbic acid and 10 μM pargyline. Plates containing cells with 200 μl of assay buffer were equilibrated for 10 minutes at 37° C. prior to addition of compounds. A stock solution of desipramine was prepared in DMSO (10 mM) and delivered to triplicate wells containing cells for a final test concentration of 1 μM. Data from these wells were used to define non-specific NE uptake (minimum NE uptake). Test compounds were prepared in DMSO (10 mM) and diluted in assay buffer according to test range (1 to 10,000 nM). Twenty-five microliters of assay buffer (maximum NE uptake) or test compound were added directly to triplicate wells containing cells in 200 μl of assay buffer. The cells in assay buffer with test compounds were incubated for 20 minutes at 37° C. To initiate the NE uptake, [^3H]NE diluted in assay buffer (120 nM final assay concentration) was delivered in 25 μl aliquots to each well and the plates were incubated for 5 minutes (37° C.). The reaction was terminated by decanting the supernatant from the plate. The plates containing cells were washed twice with 200 μl assay buffer (37° C.) to remove free radioligand. The plates were then inverted, left to dry for 2 minutes, then reinverted and air-dried for an additional 10 minutes. The cells were lysed in 25 μl of 0.25 N NaOH solution (4° C.), placed on a shake table and vigorously shaken for 5 minutes. After cell lysis, 75 μl of scintillation cocktail was added to each well and the plates were sealed with film tape. The plates were returned to the shake table and vigorously shaken for a minimum of 10 minutes to ensure adequate partitioning of organic and aqueous solutions. The plates were counted in a Wallac Microbeta counter (PerkinElmer) to collect the raw cpm data.
For each experiment, a data stream of cpm values collected from the Wallac Microbeta counter was downloaded to a Microsoft Excel statistical application program. Calculations of EC50 values were made using the transformed-both-sides logistic dose response program written by Wyeth Biometrics Department. The statistical program uses mean cpm values from wells representing maximum binding or uptake (assay buffer) and mean cpm values from wells representing minimum binding or uptake ((1 μM desipramine (hNET) or 1 μM paroxetine (hSERT)). Estimation of the EC50 value was completed on a log scale and the line was fit between the maximum and minimum binding or uptake values. All graphic data representation was generated by normalizing each data point to a mean percent based on the maximum and minimum binding or uptake values. The EC50 values reported from multiple experiments were calculated by pooling the raw data from each experiment and analyzing the pooled data as one experiment.
As a reminder, the inhibition is the relative decrease from the control value, in per cent. For `CN1CCN(CC(c2ccc(F)cc2)C2(O)CCC2)CC1` (stereo not drawn) [Example 32, 1-[1-(4-fluorophenyl)-2-(4-methylpiperazin-1-yl)ethyl]cyclobutanol dihydrochloride], the inhibition at 1 µM was -10%.

Take `OC1(C(CN2CCNCC2)c2ccc(Cl)cc2)CCC1` (stereo not drawn) [Example 18, 1-[1-(4-chlorophenyl)-2-piperazin-1-ylethyl]cyclobutanol dihydrochloride]: the inhibition at 1 µM was 44%.

As to `OC1(C(CN2CCNCC2)c2cccc(Br)c2)CCCC1` (stereo not drawn) [Example 16, 1-[1-(3-bromophenyl)-2-piperazin-1-ylethyl]cyclopentanol dihydrochloride], the inhibition at 1 µM stood at 51%.

Turning to `C[C@H]1CN(CC(c2cccc(Cl)c2)C2(O)CCCCC2)CCN1` (stereo partly drawn) [Example 4, 1-{1-(3-chlorophenyl)-2-[(3S)-3-methylpiperazin-1-yl]ethyl}cyclohexanol dihydrochloride], the inhibition at 1 µM came to 95%.

In the case of `OC1(C(CN2CCNCC2)c2cccc(Br)c2)CCCCC1` (stereo not drawn) [Example 3, 1-[1-(3-bromophenyl)-2-piperazin-1-ylethyl]cyclohexanol dihydrochloride], the inhibition at 1 µM stood at 96%.

Take `OC1(C(CN2CCNCC2)c2cccc(Cl)c2)CCCCCCC1` (stereo not drawn) [Example 36, 1-[1-(3-chlorophenyl)-2-piperazin-1-ylethyl]cyclooctanol dihydrochloride]: the inhibition at 1 µM is 28%.

Take `OC1(C(CN2CCNCC2)c2cccc(Cl)c2)CCCCCC1` (stereo not drawn) [Example 8, 1-[1-(3-chlorophenyl)-2-piperazin-1-ylethyl]cycloheptanol dihydrochloride]: the inhibition at 1 µM was found to be 81%.

Turning to `CN1CCN(CC(c2ccccc2F)C2(O)CCC2)CC1` (stereo not drawn) [Example 31, 1-[1-(2-fluorophenyl)-2-(4-methylpiperazin-1-yl)ethyl]cyclobutanol dihydrochloride], the inhibition at 1 µM was -6%.

On to `COc1ccc(C(CN2CCN(C)CC2)C2(O)CCCCCCC2)cc1Br` (stereo not drawn) [Example 41, 1-[1-(3-bromo-4-methoxyphenyl)-2-(4-methylpiperazin-1-yl)ethyl]cyclooctanol dihydrochloride], for which the inhibition at 1 µM was 48%.

Still in this assay, the particulars now being: [3H]NE uptake, MDCK-Net6 cells stably transfected with hNET; test range 1 to 10,000 nM.
Usually pEC50 stands for the EC50 on a negative log10 scale, so that one unit is a factor of ten. In the case of `C[C@H]1CN(CC(c2cccc(Cl)c2)C2(O)CCCCC2)CCN1` (stereo partly drawn) [Example 4, 1-{1-(3-chlorophenyl)-2-[(3S)-3-methylpiperazin-1-yl]ethyl}cyclohexanol dihydrochloride], the pEC50 was 7.23.

Turning to `OC1(C(CN2CCNCC2)c2cccc(Br)c2)CCCCC1` (stereo not drawn) [Example 3, 1-[1-(3-bromophenyl)-2-piperazin-1-ylethyl]cyclohexanol dihydrochloride], the negative logarithm of the EC50 (pEC50) was 7.00.

For `OC1([C@H](CN2CCNCC2)c2cccc(Cl)c2)CCCCC1` [Example 34, 1-[(1S)-1-(3-chlorophenyl)-2-piperazin-1-ylethyl]cyclohexanol dihydrochloride], the pEC50 is 7.60. Compared with the last molecule, the pEC50 is 0.60 log units higher.
